Laboratory results as given in PubChem BioAssay AID743339 (Broad Institute, 2014).
The source made the active and inactive calls.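 How the source made its calls: active means activation curve crossing 200% at or below the highest valid dose tested for that sample; inconclusive means flat curve with activation between 30 and 70%, or poor fit; inactive means the rest, including signal falling instead of rising.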

Target: Leucyl-cystinyl aminopeptidase (Mus musculus) (UniProt Q8C129)
Assay: activation of mouse IRAP aminopeptidase activity – biochemical, Leu-AMC fluorescence, cherry-picked samples, selectivity assay for ERAP1 modulator project, dose response (AID 743339)
Conditions: purified IRAP, Leu-AMC cleavage fluorescence, 1 h

Chain of Leucyl-cystinyl aminopeptidase (Mus musculus) (Q8C129 whole entry, looked up): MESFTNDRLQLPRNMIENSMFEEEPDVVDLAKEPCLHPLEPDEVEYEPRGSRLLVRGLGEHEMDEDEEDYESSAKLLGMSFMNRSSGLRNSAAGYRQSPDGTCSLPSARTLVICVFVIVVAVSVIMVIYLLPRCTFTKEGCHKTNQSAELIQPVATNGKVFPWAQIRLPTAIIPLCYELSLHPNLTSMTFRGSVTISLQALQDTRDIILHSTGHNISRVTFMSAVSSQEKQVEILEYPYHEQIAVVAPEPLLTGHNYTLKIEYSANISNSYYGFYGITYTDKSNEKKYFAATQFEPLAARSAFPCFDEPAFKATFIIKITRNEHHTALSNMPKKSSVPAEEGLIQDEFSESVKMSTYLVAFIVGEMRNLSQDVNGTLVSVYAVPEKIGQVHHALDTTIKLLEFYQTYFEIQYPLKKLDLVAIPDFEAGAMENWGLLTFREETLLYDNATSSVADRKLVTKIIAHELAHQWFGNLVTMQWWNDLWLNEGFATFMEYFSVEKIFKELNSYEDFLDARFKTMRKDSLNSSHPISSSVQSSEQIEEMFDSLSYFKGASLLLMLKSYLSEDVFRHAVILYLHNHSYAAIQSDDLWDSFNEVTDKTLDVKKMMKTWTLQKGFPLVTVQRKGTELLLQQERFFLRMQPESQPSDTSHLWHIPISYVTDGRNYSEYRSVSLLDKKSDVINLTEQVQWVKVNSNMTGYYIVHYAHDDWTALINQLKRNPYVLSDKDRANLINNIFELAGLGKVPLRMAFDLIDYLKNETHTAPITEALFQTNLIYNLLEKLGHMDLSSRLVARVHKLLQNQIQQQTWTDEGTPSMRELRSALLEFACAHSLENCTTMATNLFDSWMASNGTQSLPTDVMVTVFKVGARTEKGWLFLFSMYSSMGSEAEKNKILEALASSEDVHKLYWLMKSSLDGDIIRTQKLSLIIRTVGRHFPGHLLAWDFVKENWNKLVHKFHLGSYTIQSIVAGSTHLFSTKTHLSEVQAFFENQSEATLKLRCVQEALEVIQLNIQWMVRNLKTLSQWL

Structure (SMILES) | activation (at 11 µM (top of the series)) | AC200 | also measured
C[C@@H]1CCCCO[C@@H](CN(C)C)[C@@H](C)CN([C@@H](C)CO)C(=O)c2cc(NS(=O)(=O)c3ccc(Cl)cc3)ccc2O1 | -6.93% (inactive) |  | 
O=c1ccc2cc(OC3O[C@H](CO)[C@@H](O)[C@H](O)[C@H]3O)c(O)cc2o1 (stereo partly specified) |  | 346 nM | 
C[C@@H]1CCCCO[C@H](CN(C)Cc2ccc(C(=O)O)cc2)[C@@H](C)CN([C@H](C)CO)C(=O)c2cc(NC(=O)Nc3ccc(C(F)(F)F)cc3)ccc2O1 | 9.92% (inactive) |  | 
O=C(C[C@@H]1CC[C@@H]2[C@H](COC[C@H](O)CN2C(=O)Nc2cccc(Cl)c2)O1)N1CCCCC1 | 7.14% (inactive) |  | 
Cc1noc(C)c1S(=O)(=O)Nc1ccc2c(c1)C(=O)N([C@H](C)CO)C[C@H](C)[C@H](CN(C)Cc1ccc3c(c1)OCO3)OCCCC[C@@H](C)O2 |  |  | activation (at 10 µM (top of the series)): -18.4% (inactive)
CCN1[C@@H]2c3ccc(/C=C/c4ccccc4)c(=O)n3C[C@H]1[C@H](CO)[C@H]2C(=O)N1CCOCC1 |  | 2310 nM | 
